Converted amounts (≈) assume the structure as drawn. The source made the active and inactive calls. No cut-off for these calls is given here.

The subject of experiment [1] is Cryptococcus deneoformans. The experiment is described as follows: Antifungal activity against Cryptococcus neoformans var. neoformans after 48 hr by broth microdilution method. The experiment is classed as functional. The note with it: for MIC50: Cryptococcus deneoformans, 48 h.
Experiment [2] has as its system Cryptococcus gattii species complex. The experiment in a line: Antifungal activity against Cryptococcus gattii after 48 hr by broth microdilution method. The experiment is classed as functional. The conditions noted are these: for MIC50: Cryptococcus gattii species complex, 48 h.

Take `CCCOC(=O)COc1ccc(C)cc1OC`: the outcome in experiment [1] and in experiment [2] (Cryptococcus bacillisporus) was Active. Besides, the MIC50 in experiment [1] is 2 µg/mL (≈ 8.39 µM); in experiment [2] it was 0.25 µg/mL (≈ 1.05 µM).
Turning to `COc1cc(C)ccc1OCC(=O)Oc1ccc(Cl)cc1`, in experiment [1], the “MFC>99” value was determined as 0.25 µg/mL (≈ 0.815 µM) and the MIC50 was 0.25 µg/mL (≈ 0.815 µM). Also, in experiment [2], the “MFC>99” value came to 0.5 µg/mL (≈ 1.63 µM) and the MIC50 worked out at 0.5 µg/mL (≈ 1.63 µM).
Compound `COc1cc(C)ccc1OCC(=O)OC(C)C` showed an MIC50 in experiment [1] of 64 µg/mL (≈ 269 µM). In addition, in experiment [2], the “MFC>99” value came to 0.25 µg/mL (≈ 1.05 µM) and the MIC50 amounted to 0.25 µg/mL (≈ 1.05 µM).
Consider `Cc1ccc(OCC(=O)OC(C)C)cc1` [ISOPROPYL 4-METHYLPHENOXYACETATE], for which the “MFC>99” value in experiment [1] was >64 µg/mL. Further, the values for the MIC50 in experiment [1] and in experiment [2] were 8 µg/mL (≈ 38.4 µM) and 128 µg/mL (≈ 615 µM), respectively.
For the compound `C[C@@H]1[C@H](O)[C@@H](C)/C=C/C=C/C=C/C=C/C=C/C=C/C=C/[C@H](O[C@@H]2O[C@H](C)[C@@H](O)[C@H](N)[C@@H]2O)C[C@@H]2O[C@](O)(C[C@@H](O)C[C@@H](O)[C@H](O)CC[C@@H](O)C[C@@H](O)CC(=O)O[C@H]1C)C[C@H](O)[C@H]2C(=O)O` [AMPHOTERICIN B], the MIC50 in experiment [1] and in experiment [2] was 0.12 µg/mL (≈ 0.13 µM) throughout.
`CCCCCOC(=O)COc1ccccc1` [N-AMYL PHENOXYACETATE]: in experiment [1], the “MFC>99” value came to 64 µg/mL (≈ 288 µM) and the MIC50 turned out to be 16 µg/mL (≈ 72 µM). For the same compound, in experiment [2], the “MFC>99” value amounted to 2 µg/mL (≈ 9 µM) and the MIC50 was 2 µg/mL (≈ 9 µM).
`CCCCCOC(=O)COc1ccccc1OC`: in experiment [1], the “MFC>99” value is >64 µg/mL. The MIC50 in experiment [1] was 16 µg/mL (≈ 63.4 µM); in experiment [2] it was 64 µg/mL (≈ 254 µM).
`CC(=O)N1CCN(c2ccc(OCC3COC(Cn4ccnc4)(c4ccc(Cl)cc4Cl)O3)cc2)CC1` (stereo not given) [KETOCONAZOLE]: the figures for the MIC50 in experiment [1] and in experiment [2] were 0.12 µg/mL (≈ 0.226 µM) and 0.06 µg/mL (≈ 0.113 µM), respectively.
On the same counts, the results for `CC[C@H](C)C[C@H](C)CCCCCCCCC(=O)N[C@H]1C[C@@H](O)[C@@H](NCCN)NC(=O)[C@@H]2[C@@H](O)CCN2C(=O)[C@H]([C@H](O)CCN)NC(=O)[C@H]([C@H](O)[C@@H](O)c2ccc(O)cc2)NC(=O)[C@@H]2C[C@@H](O)CN2C(=O)[C@H]([C@@H](C)O)NC1=O` [CASPOFUNGIN] are 8 µg/mL (≈ 7.32 µM) and 16 µg/mL (≈ 14.6 µM).
Regarding `CCC(C)n1ncn(-c2ccc(N3CCN(c4ccc(OCC5COC(Cn6cncn6)(c6ccc(Cl)cc6Cl)O5)cc4)CC3)cc2)c1=O` (stereo not given) [ITRACONAZOLE], the MIC50 in experiment [1] and in experiment [2] was 0.03 µg/mL (≈ 0.0425 µM) throughout.
Take `COC(=O)COc1ccccc1OC`: in experiment [1], the “MFC>99” value is >64 µg/mL and the MIC50 amounted to 0.5 µg/mL (≈ 2.55 µM). In experiment [2], this compound showed an MIC50 of 128 µg/mL (≈ 652 µM).
With `CCCOC(=O)COc1cccc(OC)c1`, in experiment [1], the “MFC>99” value is >64 µg/mL and the MIC50 turned out to be 0.5 µg/mL (≈ 2.23 µM). Also, in experiment [2], the MIC50 was determined as 64 µg/mL (≈ 285 µM).
`CCCCCOC(=O)COc1ccc(C)cc1OC` returned an MIC50 in experiment [1] of 32 µg/mL (≈ 120 µM). In addition, in experiment [2], the “MFC>99” value was determined as 0.5 µg/mL (≈ 1.88 µM) and the MIC50 turned out to be 0.5 µg/mL (≈ 1.88 µM).
Turning to `OC(Cn1cncn1)(Cn1cncn1)c1ccc(F)cc1F` [FLUCONAZOLE], the MIC50 in experiment [1] and in experiment [2] was 4 µg/mL (≈ 13.1 µM) each time.

These data come from ChEMBL document CHEMBL3045007, “Aryloxyacetic esters structurally related to -Asarone as potential antifungal agents” (2010).
